Values quoted from earlier work, collected in patent publication US20080003262A1, “COMPOSITIONS AND THERAPEUTIC METHODS OF USE” (DrugTech Corporation, priority 2006, published 2008).

Tested on: DIV
Settings: intravaginal 2% clindamycin cream or 10% hydrocortisone

C[C@]12CCC(=O)C=C1CC[C@@H]1[C@@H]2[C@@H](O)C[C@@]2(C)[C@H]1CC[C@]2(O)C(=O)CO [hydrocortisone]
Response of DIV to treatment: responds
